The text below walks through data of patent US20240307424A1, “COMPOSITION CAPABLE OF PROMOTING HAIR GROWTH, DRUG CAPABLE OF PROMOTING HAIR GROWTH, AND APPLICATION THEREOF” (GUANGXI XINHAI PHARMACEUTICAL TECHNOLOGY CO., LTD., priority 2022, published 2024).

The test system of data set [1] is hair removal area on the back of mice. Nature of the data set: Hair growth on the back of mice after hair removal (photos, hair growth speed score). The format is in vivo, KM mice. The following applies: twice a day, 2 weeks; for hair growth speed (score 0-3) of the hair removal area: high dose 2 mg/mL, compared with the model group. The text has this:
The experimental animals are purchased from National Institutes for Food and Drug Control with a production license No. of SCXK2017 (Jing)-0005, KM mice, male, 18-20 g. SPF grade.
Except for a normal control group, the back of all the mice in the other groups are subjected to hair removal.
The experimental animals are purchased from National Institutes for Food and Drug Control with the production license No. of SCXK2017 (Jing)-0005, KM mice, male, 18-20 g, spf grade.
Except for the normal control group, the back of all the mice in the other groups are subjected to hair removal.

Data set [2] is described as follows: Weight of mice after administration for 2 weeks.
Description: Animal grouping: a blank group, a model group, a Vaseline group, a pulchinenoside B4-low dose group, a pulchinenoside B4-medium dose group, a pulchinenoside B4-high dose group, a positive drug of minoxidil liniment group, 10 mice per group, pulchinenoside B4 and minoxidil liniment in each group are dissolved with Vaseline. The mice in the Vaseline group are administered Vaseline, the low dose, and medium dose and high dose of pulchinenoside B4 are 0.5, 1, and 2 mg/mL, respectively. The mice are administered twice a day, after 2 weeks of continuous administration, the skin tissue of a hair removal area on the back of the mice in each group is taken, is fixed and is subjected to HE staining, and the number of hair follicles is counted under a microscope.
Animal grouping: a blank group, a model group, a Vaseline group, a pulchinenoside B5-low dose group, a pulchinenoside B5-medium dose group, a pulchinenoside B5-high dose group, a positive drug of minoxidil liniment group, 10 mice per group, pulchinenoside B5 and minoxidil liniment in each group are dissolved with Vaseline. […] The mice are administered twice a day, after 2 weeks of continuous administration, the skin tissue of a hair removal area on the back of the mice in each group is obtained, is fixed and is subjected to HE staining, and the number of hair follicles is counted under a microscope.
In data set [3] the test system is hair follicles in the skin tissue of the hair removal area on the back of mice. As to the kind of experiment: Number of hair follicles in skin tissue of the hair removal area (HE staining). The format is in vivo, KM mice. The note with it: twice a day, 2 weeks, compared with the model group. The source says:
After the mice are sacrificed, the skin tissue of the back is fixed, is embedded with paraffin to obtain a paraffin-embedded section, is subjected to HE staining, and is counted the number of hair follicles to evaluate the effect of hair growth promotion.

[4] abbreviates: medium dose 1 mg/mL in Vaseline.

Consider `C[C@@H]1O[C@@H](OC2[C@@H](CO)OC(OCC3OC(OC(=O)C45CCC(C)(C)C[C@@H]4[C@H]4CC[C@@H]6[C@@]7(C)CC[C@H](O[C@@H]8OC[C@H](O)[C@H](O)[C@H]8O[C@@H]8O[C@@H](C)[C@H](O)[C@@H](O)[C@H]8O)C(C)(CO)[C@@H]7CC[C@@]6(C)[C@]4(C)CC5)[C@H](O)[C@@H](O)[C@@H]3O)[C@H](O)[C@H]2O)[C@H](O)[C@H](O)[C@H]1O` (stereo partly drawn) [pulchinenoside B5], for which the “hair growth in the hair removal area on the back of mice (photos)” value in data set [1] (high dose 2 mg/mL in Vaseline), in data set [1] (low dose 0.5 mg/mL in Vaseline) and in data set [1] (setting [4]) was “can promote hair growth” throughout. The “hair growth speed (score 0-3) of the hair removal area” value in data set [1] is listed as “significantly increased”. Further, the “effect on the weight of mice” value in data set [2] is “no significant effect”. The “number of hair follicles in the skin tissue of the hair removal area” value in data set [3] (high dose 2 mg/mL), in data set [3] (low dose 0.5 mg/mL) and in data set [3] (medium dose 1 mg/mL) was “significantly increase” each time.
Regarding `C=C(C)[C@@H]1CCC2(C(=O)OC3OC(COC4O[C@H](CO)C(O[C@@H]5O[C@@H](C)[C@H](O)[C@@H](O)[C@H]5O)[C@H](O)[C@H]4O)[C@@H](O)[C@H](O)[C@H]3O)CC[C@]3(C)[C@H](CC[C@@H]4[C@@]5(C)CC[C@H](O[C@@H]6OC[C@H](O)[C@H](O)[C@H]6O[C@@H]6O[C@@H](C)[C@H](O)[C@@H](O)[C@H]6O)[C@@](C)(CO)C5CC[C@]43C)[C@@H]12` (stereo partly drawn) [pulchinenoside B4], the “hair growth in the hair removal area on the back of mice (photos)” value in data set [1] (high dose 2 mg/mL in Vaseline), in data set [1] (low dose 0.5 mg/mL in Vaseline) and in data set [1] (setting [4]) was “can promote hair growth” each time. Besides, in data set [1], the “hair growth speed (score 0-3) of the hair removal area” value is reported as “significantly increased”. The “number of hair follicles in the skin tissue of the hair removal area” value in data set [3] (high dose 2 mg/mL), in data set [3] (low dose 0.5 mg/mL) and in data set [3] (medium dose 1 mg/mL) was “significantly increase” throughout.
